This note sets out measurements from patent publication US20260274833A1 (NiKang Therapeutics, Inc., priority 2022, published 2026).

For the assay, the target named is T1, CDK2 (Homo sapiens, UniProt P24941).
T1 construct: endogenous in cells; host or cells: OVCAR3 cells
In words: Phospho-RB measurement in OVCAR3 cells (HTRF phospho-RB cellular kit). Format: cell-based. The note with it: inhibition of RB phosphorylation at S807/811 (HTRF, TR-FRET ratio 665/620), 24 h compound treatment, 0.3 to 10,000 nM. The method, boiled down:
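IC50 came from a four-parameter logistic fit of the DMSO-normalized TR-FRET ratio (665/620 nm). That ratio reflects RB phosphorylation at S807/811, read with an HTRF antibody pair 4 h after adding lysate at room temperature.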
In general terms: Time-resolved FRET reads energy transfer from a long-lived donor to a nearby acceptor.

Broadly, the IC50 is the midpoint of a concentration-inhibition curve.

As to `Cn1ncc2c1CN(S(=O)(=O)Nc1cccc(-c3nc(C(C)(C)C)sc3-c3ccnc(NC4CCN(S(C)(=O)=O)CC4)n3)c1F)C2` [Example 85, N-(3-(2-(tert-butyl)-5-(2-((1-(methylsulfonyl)-piperidin-4-yl)amino)-pyrimidin-4-yl)thiazol-4-yl)-2-fluoro-phenyl)-1-methyl-4,6-dihydro-pyrrolo[3,4-c]pyrazole-5(1H)-sulfonamide], the IC50 amounted to 394 nM.
